What was measured:
U-87MG = assay: MTT test, U-87MG; assay type: cell-based; conditions: Homo sapiens, 10^−5 M, 72 hours, control = 100%, mean ± SEM, read-out: average optical density (MTT), percentage relative to control
Protocol: (§1) The influence of the compounds of formulae (I) and (Ia) on non-clonogenic cells was evaluated with the aid of the MTT calorimetric test.
(§2) The principle of the MTT test is based on the mitochondrial reduction, by the metabolically active live cells, of the yellow-colored product MTT (3-(4,5-dimethylthiazol-2-yl)-2,5-diphenyltetrazolium bromide) to a blue-colored product, formazan. The amount of formazan thus obtained is directly proportional to the amount of live cells present in the culture well(s). This amount of formazan is measured by spectrophotometry.
(§3) The cell lines are maintained as a monolayer culture at 37° C. in stoppered culture dishes containing MEM 25 MM HEPES (Minimum Essential Medium) base medium. This medium is suited to the growth of a range of various mammalian diploid or primary cells. This medium is then supplemented with:
(§4) an amount of 5% of FCS (Foetal Calf Serum) decomplemented at 56° C. for 1 hour,
(§5) 0.6 mg/ml of L-glutamine,
(§6) 200 μg/ml of streptomycin,
(§7) The 12 human cancer cell lines which were used were obtained from the American Type Culture Collection (ATCC, Rockville, Md., USA). These 12 cell lines are:
(§8) U-373MG (code ATCC: HTB-17) and U-87MG (code ATCC: HTB-14) which are two glioblastomas,
(§9) Experimentally: 100 μl of a cell suspension containing 20 000 to 50 000 (depending on the cell type used) cells/ml of culture medium are inoculated in 96-well flat-bottomed multi-well plates and are incubated at 37° C., under an atmosphere comprising 5% CO2 and 70% humidity. After incubation for 24 hours, the culture medium is replaced with 100 μl of fresh medium containing either the various test compounds at concentrations ranging from 10^−5 to 10^−10 M or the solvent used to dissolve the test products (control condition). After incubation for 72 hours under the above conditions, the culture medium is replaced with 100 μl of a yellowish solution of MTT dissolved at a rate of 1 mg/ml in RPMI 1640. The microplates are reincubated for 3 hours at 37° C. and are then centrifuged for 10 minutes at 400×g. The yellowish solution of MTT is removed and the blue formazan crystals formed in the cell are dissolved in 100 μl of DMSO. The microplates are then shaken for 5 minutes. The intensity of the resulting blue coloration, and thus of the conversion of the yellow product MTT into blue formazan by the cells that are still alive at the end of the experiment, is quantified by spectrophotometry using a Dynatech Immunoassay System machine at wavelengths of 570 nm and 630 nm corresponding, respectively, to the maximum absorption wavelengths of formazan and to the background noise. Software incorporated in the spectrophotometer calculates the average optical density values and the standard deviation (SD) and standard error of mean (SEM) values.
(§10) By way of example, the results of the average optical density, expressed as a percentage relative to the average optical density measured under the control condition (set equal to 100%), obtained at a concentration of 10^−5 M on the 12 abovementioned tumor cell lines are given in Table II.

MCF7 = assay: MTT test, MCF7; assay type: cell-based; conditions: Homo sapiens, 10^−5 M, 72 hours, control = 100%, mean ± SEM, read-out: average optical density (MTT), percentage relative to control
Protocol: as §1, §2, §3, §4, §5, §6, §7
(§11) T-47D (code ATCC: HTB-133) and MCF7 (code ATCC: HTB-22) which are two breast cancers,
as §9, §10

T24 = assay: MTT test, T24; assay type: cell-based; conditions: Homo sapiens, T-24, 10^−5 M, 72 hours, control = 100%, mean ± SEM, read-out: average optical density (MTT), percentage relative to control
Protocol: as §1, §2, §3, §4, §5, §6, §7
(§12) J82 (code ATCC: HTB-1) and T24 (code ATCC: HTB-4) which are two bladder cancers,
as §9, §10

LoVo = assay: MTT test, LoVo; assay type: cell-based; conditions: Homo sapiens, 10^−5 M, 72 hours, control = 100%, mean ± SEM, read-out: average optical density (MTT), percentage relative to control
Protocol: as §1, §2, §3, §4, §5, §6, §7
(§13) HTC-15 (code ATCC: CCL-225) and LoVo (code ATCC: CCL-229) which are two colorectal cancers,
as §9, §10

A-427 = assay: MTT test, A-427; assay type: cell-based; conditions: Homo sapiens, 10^−5 M, 72 hours, control = 100%, mean ± SEM, read-out: average optical density (MTT), percentage relative to control
Protocol: as §1, §2, §3, §4, §5, §6, §7
(§14) A549 (code ATCC: CCL-185) and A-427 (code ATCC: HTB-53) which are two non-small-cell lung cancers,
as §9, §10

A549 = assay: MTT test, A549; assay type: cell-based; conditions: Homo sapiens, 10^−5 M, 72 hours, control = 100%, mean ± SEM, read-out: average optical density (MTT), percentage relative to control
Protocol: as §1, §2, §3, §4, §5, §6, §7, §14, §9, §10

HCT-15 = assay: MTT test, HCT-15; assay type: cell-based; conditions: Homo sapiens, 10^−5 M, 72 hours, control = 100%, mean ± SEM, read-out: average optical density (MTT), percentage relative to control
Protocol: as §1, §2, §3, §4, §5, §6, §7, §13, §9, §10

T-47D = assay: MTT test, T-47D; assay type: cell-based; conditions: Homo sapiens, T47D, 10^−5 M, 72 hours, control = 100%, mean ± SEM, read-out: average optical density (MTT), percentage relative to control
Protocol: as §1, §2, §3, §4, §5, §6, §7, §11, §9, §10

[1] = Determination of the maximum tolerated dose (MTD); conditions: mouse, in vivo, ip; B6D2F1/Jico mice; single intraperitoneal administration, 2.5 to 160 mg/kg; survival over 14 days
Protocol: 3.—Determination of the Maximum Tolerated Dose (MTD):
The evaluation of the maximum tolerated dose was carried out on 4- to 6-week-old B6D2F1/Jico mice. The compounds were administered intraperitoneally at increasing doses graduating from 2.5 to 160 mg/kg. The value of the MTD (expressed in mg/kg) is determined from the observation of the survival rate of the animals over a 14-day period after a single administration of the product under consideration. The weight change of the animals is also monitored during this period. When the value of the MTD is greater than 160 mg/kg, the MTD value is likened to 160 mg/kg by default.
The results of the estimation of the maximum tolerated dose (MTD) are collated in the following table: […]

U-373MG = assay: MTT test, U-373MG; assay type: cell-based; conditions: Homo sapiens, U373 MG, 10^−5 M, 72 hours, control = 100%, mean ± SEM, read-out: average optical density (MTT), percentage relative to control
Protocol: as §1, §2, §3, §4, §5, §6, §7, §8, §9, §10

PC-3 = assay: MTT test, PC-3; assay type: cell-based; conditions: Homo sapiens, 10^−5 M, 72 hours, control = 100%, mean ± SEM, read-out: average optical density (MTT), percentage relative to control
Protocol: as §1, §2, §3, §4, §5, §6, §7
PC-3 (code ATCC: CRL-1435) which is a prostate cancer.
as §9, §10

SW1088 = assay: MTT test, SW1088; assay type: cell-based; conditions: Homo sapiens, 10^−5 M, 72 hours, control = 100%, mean ± SEM, read-out: average optical density (MTT), percentage relative to control
Protocol: as §1, §2, §3, §4, §5, §6, §7
SW1088 (code ATCC: HTB-12) which is an astrocytoma,
as §9, §10

J82 = assay: MTT test, J82; assay type: cell-based; conditions: Homo sapiens, 10^−5 M, 72 hours, control = 100%, mean ± SEM, read-out: average optical density (MTT), percentage relative to control
Protocol: as §1, §2, §3, §4, §5, §6, §7, §12, §9, §10

Compound	viability at 10 µM (U-87MG)	viability at 10 µM (MCF7)	viability at 10 µM (T24)	viability at 10 µM (LoVo)	viability at 10 µM (A-427)	viability at 10 µM (A549)	viability at 10 µM (HCT-15)	viability at 10 µM (T-47D)	MTD at 14 day [1]	viability at 10 µM (U-373MG)	viability at 10 µM (PC-3)	viability at 10 µM (SW1088)	viability at 10 µM (J82)
COc1ccc(-c2cc3c(OC)cc(OC)cc3n(C)c2=O)cc1 [CRL8244, 5,7-Dimethoxy-3-(4-methoxyphenyl)-1-methyl-1,2-dihydro-2-quinolinone]	97 ± 1%	75.9 ± 3.8%	88.7 ± 2.9%	78.2 ± 1.8%	93.6 ± 2.3%	98 ± 0.9%	76.8 ± 3%	105 ± 3%	> 160 mg/kg	69 ± 0.9%	83.2 ± 3.6%	81.3 ± 1.1%	88.5 ± 2.1%
COc1ccc(-c2cc3c(OC)cc(OC)cc3n(C)c2=S)cc1 [CRL8245, 5,7-Dimethoxy-3-(4-methoxyphenyl)-1-methyl-1,2-dihydro-2-quinolinethione]	58.6 ± 1.7%	46.9 ± 1%	51.1 ± 1.9%	65.5 ± 1.1%	69 ± 1.9%	74.1 ± 2.1%	35.8 ± 1.2%	59.6 ± 2.9%	> 160 mg/kg	63.7 ± 2.7%	74.4 ± 1.9%	75.1 ± 2%	31.1 ± 0.6%
COc1ccc(-c2cc3c(OC)cc(OC)cc3n(CCCN(C)C)c2=O)cc1 [CRL8254, 1-[3-(Dimethylamino)propyl]-5,7-dimethoxy-3-(4-methoxyphenyl)-1,2-dihydro-2-quinolinone]	105 ± 3.6%	81.9 ± 0.6%	103 ± 2.9%	91.8 ± 2.7%	20.2 ± 2.3%	96.9 ± 1.5%	94.4 ± 3.5%	55.2 ± 4.1%	> 160 mg/kg	7.6 ± 1.3%	97.9 ± 1.2%	128 ± 2.2%	87.8 ± 1%
COc1ccc(-c2cc3c(OC)cc(OC)cc3n(CC#N)c2=O)cc1 [CRL8255, [5,7-Dimethoxy-3-(4-methoxyphenyl)-2-oxo-1,2-dihydro-1-quinolinyl]acetonitrile]	72.5 ± 1.1%	71.5 ± 1.4%	79.5 ± 2.2%	56.9 ± 1.1%	76.3 ± 1.5%	79.1 ± 2.1%	58.7 ± 3%	73.7 ± 3.3%	> 160 mg/kg	68.5 ± 2.7%	77.7 ± 1.2%	67.5 ± 1.5%	36.2 ± 0.5%
COc1ccc(-c2cc3c(OC)cc(OC)cc3n(C)/c2=N\Nc2ccccn2)cc1 [CRL8266, 5,7-Dimethoxy-3-(4-methoxyphenyl)-1-methyl-1,2-dihydro-2-quinolinone-2-(2-pyridyl)hydrazone]	64.4 ± 1.2%	46.3 ± 2.6%	84.6 ± 3%	71.3 ± 4.5%	45.2 ± 2.2%	61.6 ± 3.5%	76.1 ± 1.5%	25 ± 4%	> 160 mg/kg	66.3 ± 1.6%	67.2 ± 0.9%	68.4 ± 1.6%	31.2 ± 0.7%
COc1ccc(-c2cc3c(OC)cc(OC)cc3n(C)/c2=N\Nc2ccccc2)cc1 [CRL8270, 5,7-Dimethoxy-3-(4-methoxyphenyl)-1-methyl-1,2-dihydro-2-quinolinone-2-phenylhydrazone]	75.6 ± 0.9%	51.5 ± 2.4%	51.1 ± 3.8%	80 ± 3.2%	30.8 ± 2.1%	52.2 ± 2.4%	58.8 ± 1.8%	22.9 ± 4.3%	> 160 mg/kg	52.2 ± 3.2%	49.4 ± 1.1%	50.7 ± 1.8%	42.5 ± 0.8%
COc1ccc(-c2cc3c(OC)cc(OC)cc3nc2S)cc1 [CRL8271, 5,7-Dimethoxy-3-(4-methoxhphenyl)-1,2-dihydro-2-quinolinethione]	78.5 ± 1.7%	106 ± 2.3%	107 ± 2.3%	94.2 ± 2.8%	84.1 ± 1.9%	94.2 ± 4.7%	87.2 ± 2.8%	90.9 ± 1.7%	> 160 mg/kg	96.2 ± 1.6%	107 ± 2.7%	102.2 ± 0.5%	75.9 ± 1.3%
COc1cc(OC)c2cc(-c3ccc(O)cc3)c(O)nc2c1 [CRL8284, 5,7-Dimethoxy-3-(4-hydroxyphenyl)-1,2-dihydro-2-quinolinone]	88.1 ± 2.2%	66.6 ± 2.7%	68.5 ± 0.9%	102 ± 1.3%	96 ± 2%	91.7 ± 1.6%	77.3 ± 1.8%	89.9 ± 1.9%	> 160 mg/kg	87.7 ± 1.4%	83.8 ± 1%	78.3 ± 1.6%	48.8 ± 0.7%

Reference: patent US6593342B1, “Pharmaceutical compositions comprising 2-quinolones” (Laboratoire L. Lafon, priority 1998, dated 2003)
